Test results published in patent US8927563B2, “Kinase inhibitor” (Respivert Limited, priority 2013, dated 2015).

Target: p38 MAPKα (Homo sapiens (Human), UniProt Q16539)
Assay: Phosphoflow assay, cellular p38 MAPKα inhibition in Jurkat cells
Format: cell-based
Settings: H2O2 stimulated, read-out: IC50 Values, phospho-p38 MAPKα (converted)
Experimental: Jurkat T cells were cultured in starve medium (RPMI 1640+5% FBS) for 24 h prior to the experiment. Cells were harvested and resuspended at 10×10^6 cells/mL in starve medium and then plated into round-bottomed 96 well plates at 1×10^6 cells/well. Serial dilutions of test compound were added (1% final DMSO concentration) for 2 h prior to stimulation. Following pre-incubation with compound, cells were stimulated with H2O2 (0.05% final) for 5 min. The reaction was stopped by centrifugation at 2000 rpm (3 min, 4° C.), then the supernatant was removed and 100 μL of cold fix/perm solution (BD Fix/Perm kit #554714) added. Plates were incubated for 20 min at 4° C. before centrifugation and washing with supplied 1× wash medium (BD Fix/Perm kit #554714). Cells were stained for either phospho-p38α (T180/182), supplied by Cell Signalling Technology (9211s), or phospho-Lck (Y394), supplied by R&D (MAB7500). Antibodies were diluted to 5 μg/mL (R&D) or 1:200 (Cell Signalling Technology) in wash medium, before being incubated 1 h at 4° C. in the dark. Following 3 repeat washes with ice cold wash buffer, secondary antibody (anti-rabbit-FITC #F1362 or anti-mouse-FITC #F2883, both from Sigma) was added at a dilution of 1:1000 and incubated for 1 h at 4° C. in the dark. […] Cells were analysed by flow cytometry using BD Accuri C6.

Chain of p38 MAPKα (Q16539 whole entry, looked up): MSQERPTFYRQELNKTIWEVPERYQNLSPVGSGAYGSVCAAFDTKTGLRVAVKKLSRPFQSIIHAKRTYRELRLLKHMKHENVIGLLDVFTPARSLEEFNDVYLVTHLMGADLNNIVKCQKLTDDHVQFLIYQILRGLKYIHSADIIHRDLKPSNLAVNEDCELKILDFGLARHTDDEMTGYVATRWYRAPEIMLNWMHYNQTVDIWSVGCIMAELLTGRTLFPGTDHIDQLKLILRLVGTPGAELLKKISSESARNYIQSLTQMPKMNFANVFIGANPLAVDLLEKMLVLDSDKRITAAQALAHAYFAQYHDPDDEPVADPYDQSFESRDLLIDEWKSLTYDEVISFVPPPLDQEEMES

## C#Cc1cc(Nc2nccc(Oc3ccc(NC(=O)Nc4cc(C(C)(C)C)cc(NS(C)(=O)=O)c4OC)c4ccccc34)n2)cc(C(=O)NCCOCCOCCOC)c1 [Compound I, 3-((4-((4-(3-(5-(tert-Butyl)-2-methoxy-3-(methylsulfonamido)phenyl)ureido)naphthalen-1-yl)oxy)pyrimidin-2-yl)amino)-5-ethynyl-N-(2-(2-(2-methoxyethoxy)ethoxy)ethyl)benzamide]
  IC50: 23.8 nM
